From US5948814A, “Genistein for the treatment of cystic fibrosis” (priority 1998, dated 1999)
Where “and” joins values, the source holds several entries; their conditions need not be identical. Equal entries are not always repeated. Where two headings read alike, the source gives them in different places.

Legend:
wt-CFTR [1] = biological target: T1, wt-CFTR (Homo sapiens, UniProt P13569); test: cell-based; assay type: cell-based; set-up: expressed in transfected cells
Procedure: FIG. 1 is a graph representing the dose-responses relationship for forskolin-dependent I^- efflux. Peak rates of I^- efflux in the presence (closed symbols) or absence (open symbols) of 50 μM genistein were obtained with NIH/3T3-cystic fibrosis transmembrane conductance regulator (NIH/3T3-CFTR) (circles) and NTH/3T3-Δphenylalanine 508 (ΔF508) cells (triangles). NIH/3T3-CFTR cells are cultured at 37° C. NIH/3T3-Δ508 cells are cultured at 27° C. for 3 days prior to assay. Data are mean values±SE (n>5). Lines were fit by nonlinear least squares.
(§1) Cell culture: NIH/3T3-CFTR, NIH/3T3-ΔF508, and NIH/3T3 mock cells (generous gifts from Dr. Richard Mulligan of Children's Hospital and Medical Center, Harvard Medical School) were grown as described [Bradbury et al., 1992] at 37° C. and 5% CO2 in Dulbecco's modified Eagle's medium-H21 supplemented with 10% new-born calf serum, 4 mM glutamine, 25 mM glucose, 100 μg/ml penicillin, 100 μg/ml streptomycin, and 50 μg/ml gentamicin. Cells were maintained in T75 flasks, passaged at 90-95% confluency, and split one to four. For measurements of I^- efflux and in vivo phosphorylation, cells were seeded onto 35-mm dishes at […]. For patch-clamp experiments, cells were grown on coverglass chips in 35-mm culture dishes. Media were replaced 24 hours after plating and thereafter every 48 hours. In all cases, media were changed on the day before I^- efflux studies, NIH/3T3-ΔF508 cells were transferred to 27° C. three days before use, and 1 day prior to study, media were supplemented with 5 mM butyrate. For patch-clamp studies, where a constant level of functional ΔF508-CFTR was not essential, NIH/3T3-ΔF508 cells were cultured at 27° C. for 2-6 days before use. Calu-3 cells were grown and maintained as described by Hunter [1995].
I^- efflux: I^- efflux was measured as described previously [Reenstra et al., 1996]. Briefly, cells were incubated for 30 minutes with 37° C. I^- efflux buffer [(in mM) 141 NaCl, 4 KCl, 1 KH2 PO4, 0.9 MgCl2, 1.7 CaCl2. 10 N-2hydroxyethylpiperazine-N'-2-ethanesulfonic acid (HEPES), 25 glucose pH 7.4] containing 5 μCi/ml carrier-free ^125 I^- (sodium salt). Extracellular ^125 I^- was removed by washing four times with efflux buffer, and the rate of loss of intracellular ^125 I^- was determined by replacing the bathing solution with 37° C. efflux buffer every 60 seconds for 12 minutes. Time-dependent rates of ^125 I^- efflux are calculated from R=ln(^125 I^-t1 /^125 I^-t2)/(t1-t2), where ^125 I^-t is the intracellular ^125 I^- at time t and t1 and t2 are successive time points. Dose-response curves were obtained from peak rates of 125I^- efflux by nonlinear least squares fitting to R=[Ro +Rmx ·([fsk]/K1/2)]/[1+([fsk]/K1/2)], where Ro and Rmx are the rates of ^125 I efflux at zero and infinite concentration of forskolin (fsk), and K1/2 is the concentration of agonist that gives a half-maximal change.
To investigate effects of genistein on CFTR activity, the rates of I^- efflux were measured from stably transfected NIH/3T3 cells expressing wt- and ΔF508-CFTR (NIH/33-CFTR and NIH/3T3-ΔF508 cells, respectively).

wt-CFTR [2] = biological target: T1, wt-CFTR; assay type: cell-based; set-up: expressed in transfected cells
Procedure: FIGS. 4A and B are graphs showing the variance analysis of macroscopic currents for wt- and ΔF508-CFTR wherein (A) is a plot of variance as a function of mean-current amplitude for NIH/3T3-CFTR(.circle-solid.) and NIH/3T3-ΔF508 (.smallcircle.) cells stimulated with 10 μM forskolin plus 50 μM genistein. (B) is a plot of variance as a function of mean-current amplitude for NIH/3T3-CFTR (.circle-solid.) and NIH/3T3-ΔF508 (.smallcircle.) cells stimulated with 10 μM forskolin. Lines are least square regressions.
Electrophysiology: CFTR channel currents were recorded at room temperature (~22° C.) with a patch-clamp amplifier (EPC-9, Heka Electronic), filtered at 100 Hz with a built-in three-pole Bessel filter, and stored on videotapes. Data were subsequently refiltered at 25 Hz with an eight-pole Bessel filter (Frequency Device, Havervill, Mass.) and captured onto a hard disk at a sampling rate of 50 Hz. […] Patch-clamp electrodes were made from Corning 7052 glass capillaries (Warner Instrument, Hammed, Conn.). The pipette resistance was usually 3-5 M.OMEGA., and the seal resistance was >20 G.OMEGA.. […]
Statistics: Mean currents and variance were estimated with Igor (Wavemetrics, Lake Oswego, Oreg.). […] Po was calculated from patches containing a single channel by dividing the open channel current amplitude with the mean-current amplitude. […] Calculated values are presented as means±SE. […]

wt-CFTR [3] = biological target: T1, wt-CFTR
Procedure: FIGS. 3A and B show recordings of the potentiation of wild-type (wt) and ΔF508-CFTR channel activity by genistein. […]
as §1
Electrophysiology: CFTR channel currents were recorded at room temperature (~22° C.) with a patch-clamp amplifier (EPC-9, Heka Electronic), filtered at 100 Hz with a built-in three-pole Bessel filter, and stored on videotapes. Data were subsequently refiltered at 25 Hz with an eight-pole Bessel filter (Frequency Device, Havervill, Mass.) and captured onto a hard disk at a sampling rate of 50 Hz. […] Patch-clamp electrodes were made from Corning 7052 glass capillaries (Warner Instrument, Hammed, Conn.). The pipette resistance was usually 3-5 M.OMEGA., and the seal resistance was >20 G.OMEGA.. The pipette solution contained (in mM) 140 N-methyl-D-glucamine chloride (NMDG-C1), 2 MgCl2, 5Ca Cl2, and 10 HEPES (pH 7.4 with NMDG). The superfusion solution contained (in mM) 150 […], 2 MgCl2, 1 EGTA, 5 glucose, and 5 HEPES (pH 7.4 with NaOH). In excised inside-out patch experiments, the bath solution contained (in mM) 130 MNDG-Cl, 10 EGTA, 10 HEPES, 20 tetraethylammonium chloride, 8 Tris, and 2 MgCl2 (pH 7.4 with NMDG). Pipette potential was held at 50 mV relative to the bath. Downward deflections represent channel opening.
Statistics: Mean currents and variance were estimated with Igor (Wavemetrics, Lake Oswego, Oreg.). Parameters for mean current-variance relationships and dose-response curves were obtained from least-square fitting with Sigmaplot (Jandel, San Rafael, Calif.). Po was calculated from patches containing a single channel by dividing the open channel current amplitude with the mean-current amplitude.

T1 sequence (P13569 whole entry): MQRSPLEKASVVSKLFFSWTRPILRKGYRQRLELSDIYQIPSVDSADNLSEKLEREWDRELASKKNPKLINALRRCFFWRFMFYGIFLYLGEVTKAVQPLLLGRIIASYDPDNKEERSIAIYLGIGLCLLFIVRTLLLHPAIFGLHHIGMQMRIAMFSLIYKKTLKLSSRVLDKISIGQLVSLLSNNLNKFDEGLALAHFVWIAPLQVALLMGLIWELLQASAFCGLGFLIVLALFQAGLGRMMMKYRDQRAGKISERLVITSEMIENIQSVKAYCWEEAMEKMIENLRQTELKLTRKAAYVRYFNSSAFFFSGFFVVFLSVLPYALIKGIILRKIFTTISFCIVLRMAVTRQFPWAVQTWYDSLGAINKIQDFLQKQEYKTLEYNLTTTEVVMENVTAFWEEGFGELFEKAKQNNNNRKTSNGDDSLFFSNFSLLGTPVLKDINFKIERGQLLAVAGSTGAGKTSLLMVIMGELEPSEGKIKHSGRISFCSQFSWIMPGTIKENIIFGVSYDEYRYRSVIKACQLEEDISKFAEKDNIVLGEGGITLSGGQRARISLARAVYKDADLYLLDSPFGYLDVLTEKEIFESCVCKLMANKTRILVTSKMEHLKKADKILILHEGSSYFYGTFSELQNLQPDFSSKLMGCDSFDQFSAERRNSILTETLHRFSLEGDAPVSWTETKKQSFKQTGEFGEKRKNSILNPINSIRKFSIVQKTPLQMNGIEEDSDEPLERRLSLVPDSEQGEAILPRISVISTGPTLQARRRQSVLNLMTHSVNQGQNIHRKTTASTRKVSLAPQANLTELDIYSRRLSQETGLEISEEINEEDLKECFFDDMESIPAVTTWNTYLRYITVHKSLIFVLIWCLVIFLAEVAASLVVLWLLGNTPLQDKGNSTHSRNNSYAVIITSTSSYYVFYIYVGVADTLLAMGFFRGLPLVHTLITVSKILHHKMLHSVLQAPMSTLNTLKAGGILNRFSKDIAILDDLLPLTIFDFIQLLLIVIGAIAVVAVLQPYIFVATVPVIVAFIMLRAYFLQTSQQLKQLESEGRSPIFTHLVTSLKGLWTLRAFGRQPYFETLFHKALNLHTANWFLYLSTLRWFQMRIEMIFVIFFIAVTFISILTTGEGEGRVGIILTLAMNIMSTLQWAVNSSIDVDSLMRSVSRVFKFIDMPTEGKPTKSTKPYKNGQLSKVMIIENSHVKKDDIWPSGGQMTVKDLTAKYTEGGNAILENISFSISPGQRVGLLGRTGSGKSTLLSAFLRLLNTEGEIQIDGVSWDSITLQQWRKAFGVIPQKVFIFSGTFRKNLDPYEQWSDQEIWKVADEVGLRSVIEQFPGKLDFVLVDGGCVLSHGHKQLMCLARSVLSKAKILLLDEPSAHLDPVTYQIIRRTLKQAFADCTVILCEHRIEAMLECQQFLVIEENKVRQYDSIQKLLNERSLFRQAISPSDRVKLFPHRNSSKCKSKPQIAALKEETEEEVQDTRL

SMILES | effect on I- efflux at high forskolin concentrations (wt-CFTR [1]; 50 μM genistein, high forskolin) | slope of variance vs mean current (proportional to 1-Po) (wt-CFTR [2]; 10 μM forskolin and 50 μM genistein) [pA] | macroscopic current (wt-CFTR [3]; 5 μM genistein with 50 nM forskolin) | average increase in mean-current amplitude by genistein (wt-CFTR [3]; 50 μM genistein on 10 μM forskolin, NIH/3T3-CFTR, 50 µM) | increase of forskolin-dependent wt-CFTR activity by genistein (wt-CFTR [3]; 50 μM genistein, NIH/3T3-CFTR cells incubated at 27° C. for 2-6 days, n=13) [fold] | increase of wt-CFTR current by genistein (wt-CFTR [3]; multichannel patches, 50 nM forskolin, n=6) [fold] | EC50 (wt-CFTR [1]) [nM] | stimulation of normal CFTR activity (wt-CFTR [1]) | maximal fold induction at 10 µM (wt-CFTR [1]; mouse, read-out: maximal stimulation of I- efflux) | EC50 (wt-CFTR [1]; read-out: K1/2 of forskolin for I- efflux in presence of genistein, with 50 μM genistein, NIH/3T3-CFTR cells) [nM] | slope of variance vs mean current (proportional to 1-Po) (wt-CFTR [2]; 10 μM forskolin) [pA] | single-channel current steps observed (wt-CFTR [3]; 50 nM forskolin)
O=c1c(-c2ccc(O)cc2)coc2cc(O)cc(O)c12 [Genistein, 4',5,7-trihydroxyisoflavone] | had no effect at high forskolin concentrations | 0.17±0.02 | ~ 7.5 pA | 3.9±0.4 fold and 3.3±0.4 fold | 3.1±0.3 | 21±6 | – | – | – | – | – | –
C=C[C@@]1(C)CC(=O)[C@]2(O)[C@@]3(C)[C@@H](O)CCC(C)(C)[C@@H]3[C@H](O)[C@H](OC(C)=O)[C@@]2(C)O1 [forskolin] | – | – | – | – | – | – | 110 ± 30 | stimulates normal CFTR activity very well | 8.2 ± 0.4 | 50 ± 20 | 0.27±0.02 | ≤ 4
